Results published in US20260234161A1, “RIFABUTIN ANALOGS FOR THE TREATMENT OF BACTERIAL DISEASES” (BIOVERSYS AG, priority 2023, published 2026).
Converted amounts (≈) assume the structure as drawn.

Legend:
Format in all cases: cell-based
[1] = tested on: A. baumannii (HUMC1 strain); experiment: MIC by broth microdilution, A. baumannii (RPMI + 10% FCS); settings: Acinetobacter baumannii; HUMC1 strain; RPMI medium + 10% FCS; 35° C., 20 hours; read-out: MIC A. baumannii
M. xenopi (ATCC 19250) = experiment: MIC by broth microdilution, M. xenopi; settings: Mycobacterium xenopi, ATCC19250, 168 h, cation adjusted Mueller Hinton broth + ADC (5%), 37° C., 7 days (at least)
Protocol: (§1) MIC values were determined by broth microdilution method according to the CLSI guidelines with the following exceptions: MIC against A. baumannii was performed in RPMI medium supplemented with 10% FCS and MIC against M. abscessus was performed in Middlebrook 7H9 broth supplemented with Middlebrook ADC growth supplement (10%; see column “M. abscessus 7H9”). MIC forM abscessus was determined a second time in standard cation adjusted Mueller Hinton broth without growth supplement (see colum “M. abscessus MH”). All other MIC were performed in standard cation adjusted Mueller Hinton broth, supplemented with Middlebrook ADC growth supplement (5%) for the slow growing mycobacteria (M. xenopi, M. kansasii and M. avium).
(§2) The following procedure applies to all species tested, except forM xenopi. From a fresh culture plate (from overnight to several days depending on the bacteria), cells were resuspended in 0.9% (w/v) saline solution and bacterial inoculum was prepared in the respective testing medium with 5×10^5 CFU/mL. For M. xenopi, the inoculum was prepared from a fresh liquid culture (7H9+ADC). The appropriate volumes of a 10 mg/mL compound solution were directly dispensed in the 96-well assay plate using a digital dispenser to create two-fold dilution series from 32 to 0.002 μg/mL final concentration for A. baumannii and S. aureus; from 16 to 0.016 μg/mL for M. abscessus and M. avium; and from 1 to 6×10^−5 μg/mL for M. kansasii and M. xenopi. 100 μL of bacterial suspension was finally added to the compounds. Plates were covered and incubated without shaking at 35° C. for 20 hours for A. baumanii and S. aureus; at 30° C. for 4 days for M. abscessus; and at 37° C. for 7 days (at least) for M. kansasii (covered with aluminum foil to avoid light exposure), M. avium and M. xenopi. Every experiment contained an antibiotic as quality control. MIC was determined visually as the lowest concentration of a compound that prevents visible growth of the bacteria.
(§3) The in vitro activity of compounds described herein was determined against S. aureus (UAMS-1625 strain), A. baumannii (HUMC1 strain), M. abscessus (ATCC 19977), M. kansasii (ATCC 12478), M. avium (ATCC 25291), and M. xenopi (ATCC 19250).

[2] = tested on: S. aureus (UAMS-1625 strain); experiment: MIC by broth microdilution, S. aureus; settings: Staphylococcus aureus, 20 h, read-out: MIC S. aureus
How it was run: (§4)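 CLSI broth microdilution in cation-adjusted Mueller Hinton broth, 5×10^5 CFU/mL inoculum; ADC (5%) added for M. avium and M. xenopi (M. xenopi inoculum from 7H9+ADC liquid culture). Two-fold series 16–0.016 μg/mL (M. abscessus, M. avium), 1–6×10^−5 μg/mL (M. xenopi); S. aureus 35° C 20 h, M. abscessus 30° C 4 days, others 37° C ≥7 days; MIC = lowest concentration without visible growth.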

[3] = tested on: M. abscessus (ATCC 19977); experiment: MIC by broth microdilution, M. abscessus in Middlebrook 7H9 broth + ADC; settings: Mycobacteroides abscessus
Protocol: as §1, §2, §3

M. avium (ATCC 25291) = experiment: MIC by broth microdilution, M. avium; settings: Mycobacterium avium, ATCC25291, 168 h, cation adjusted Mueller Hinton broth + ADC (5%), 37° C., 7 days (at least)
Protocol: as §1, §2, §3

M. kansasii (ATCC 12478) = experiment: MIC by broth microdilution, M. kansasii; settings: Mycobacterium kansasii, ATCC12478, 168 h, cation adjusted Mueller Hinton broth + ADC (5%), 37° C., 7 days (at least)
Protocol: as §1, §2, §3

[4] = tested on: M. abscessus (ATCC 19977); experiment: MIC by broth microdilution, M. abscessus in cation adjusted Mueller Hinton broth; settings: Mycobacteroides abscessus
How it was run: as §4

[5] = ATCC19977, 96 h, ATCC 19977, Middlebrook 7H9 broth + ADC growth supplement (10%), 30° C., 4 days, read-out: MIC M. abscessus 7H9
[6] = ATCC19977, 96 h, ATCC 19977, cation adjusted Mueller Hinton broth without growth supplement, 30° C., 4 days, read-out: MIC M. abscessus MH

Structure (SMILES)	MIC [1]	MIC (M. xenopi (ATCC 19250))	MIC [2]	MIC [3, 5]	MIC (M. avium (ATCC 25291))	MIC (M. kansasii (ATCC 12478))	MIC [4, 6]	MIC ([3]; ATCC19977, 7H9 broth, read-out: MIC value against M. abscessus in 7H9 broth)	MIC ([4]; ATCC19977, Mueller Hinton broth, read-out: MIC value against M. abscessus in Mueller Hinton broth)
CO[C@H]1/C=C/O[C@@]2(C)Oc3c(C)c(O)c4c(c3C2=O)C2=NC3(CCN(CC(C)C)CC3)NC2=C(NC(=O)/C(C)=C\C=C\[C@H](C)[C@H](O)[C@@H](C)[C@@H](O)[C@@H](C)[C@H](OC(=O)N2CCC(c3ccccc3)CC2)[C@@H]1C)C4=O [Compound 1]	0.25 µg/mL	0.03 µg/mL	0.5 µg/mL (≈ 0.504 µM)	0.125 µg/mL	0.125 µg/mL	0.004 µg/mL	0.5 µg/mL (≈ 0.504 µM)		
CO[C@H]1/C=C/O[C@@]2(C)Oc3c(C)c(O)c4c(c3C2=O)C2=NC3(CCN(CC(C)C)CC3)NC2=C(NC(=O)/C(C)=C\C=C\[C@H](C)[C@H](O)[C@@H](C)[C@@H](O)[C@@H](C)[C@H](OC(=O)N2CCC(c3ccncc3)CC2)[C@@H]1C)C4=O [Compound 2]	0.016 µg/mL	0.002 µg/mL	0.125 µg/mL (≈ 0.126 µM)	0.125 µg/mL	0.06 µg/mL	0.0005 µg/mL	0.25 µg/mL (≈ 0.252 µM)		
CO[C@H]1/C=C/O[C@@]2(C)Oc3c(C)c(O)c4c(c3C2=O)C2=NC3(CCN(CC(C)C)CC3)NC2=C(NC(=O)/C(C)=C\C=C\[C@H](C)[C@H](O)[C@@H](C)[C@@H](O)[C@@H](C)[C@H](OC(=O)N2CCC(N(C)c3ccccc3)CC2)[C@@H]1C)C4=O [Compound 4]	0.125 µg/mL	0.016 µg/mL	0.5 µg/mL (≈ 0.49 µM)	0.25 µg/mL	0.25 µg/mL	0.002 µg/mL	1 µg/mL (≈ 0.979 µM)		
CO[C@H]1/C=C/O[C@@]2(C)Oc3c(C)c(O)c4c(c3C2=O)C2=NC3(CCN(CC(C)C)CC3)NC2=C(NC(=O)/C(C)=C\C=C\[C@H](C)[C@H](O)[C@@H](C)[C@@H](O)[C@@H](C)[C@H](OC(=O)N2CCN(c3ccccc3)CC2)[C@@H]1C)C4=O [Compound 7]	0.125 µg/mL	0.008 µg/mL	0.5 µg/mL (≈ 0.503 µM)	0.125 µg/mL	0.25 µg/mL	0.001 µg/mL	0.5 µg/mL (≈ 0.503 µM)		
CO[C@H]1/C=C/O[C@@]2(C)Oc3c(C)c(O)c4c(c3C2=O)C2=NC3(CCN(CC(C)C)CC3)NC2=C(NC(=O)/C(C)=C\C=C\[C@H](C)[C@H](O)[C@@H](C)[C@@H](O)[C@@H](C)[C@H](OC(=O)N2CCC3(CCN(C)CC3)CC2)[C@@H]1C)C4=O [Compound 21]	≤ 0.016 µg/mL	0.25 µg/mL	0.06 µg/mL (≈ 0.06 µM)		0.5 µg/mL	0.125 µg/mL	2 µg/mL (≈ 2 µM)		
CCCCN1CCC(NC(=O)O[C@H]2[C@H](C)[C@H](O)[C@H](C)[C@@H](O)[C@@H](C)/C=C/C=C(/C)C(=O)NC3=C4NC5(CCN(CC(C)C)CC5)N=C4c4c(c(O)c(C)c5c4C(=O)[C@@](C)(O/C=C/[C@H](OC)[C@H]2C)O5)C3=O)CC1 [Compound 30]	≤ 0.016 µg/mL	0.06 µg/mL	0.06 µg/mL (≈ 0.0608 µM)		0.125 µg/mL	0.016 µg/mL	0.5 µg/mL (≈ 0.506 µM)		
CCCCN1CCN(C(=O)O[C@H]2[C@H](C)[C@H](O)[C@H](C)[C@@H](O)[C@@H](C)/C=C/C=C(/C)C(=O)NC3=C4NC5(CCN(CC(C)C)CC5)N=C4c4c(c(O)c(C)c5c4C(=O)[C@@](C)(O/C=C/[C@H](OC)[C@H]2C)O5)C3=O)CC1 [Compound 50]	0.03 µg/mL	0.008 µg/mL	0.125 µg/mL (≈ 0.128 µM)		0.125 µg/mL	0.008 µg/mL	0.25 µg/mL (≈ 0.257 µM)		
CO[C@H]1/C=C/O[C@@]2(C)Oc3c(C)c(O)c4c(c3C2=O)C2=NC3(CCN(CC(C)C)CC3)NC2=C(NC(=O)/C(C)=C\C=C\[C@H](C)[C@H](O)[C@@H](C)[C@@H](O)[C@@H](C)[C@H](OC(=O)N2CCN(CC3CC3)CC2)[C@@H]1C)C4=O [Compound 56]	≤ 0.016 µg/mL	0.008 µg/mL	0.125 µg/mL (≈ 0.129 µM)		0.06 µg/mL	0.004 µg/mL	0.25 µg/mL (≈ 0.257 µM)		
CO[C@H]1/C=C/O[C@@]2(C)Oc3c(C)c(O)c4c(c3C2=O)C2=NC3(CCN(CC(C)C)CC3)NC2=C(NC(=O)/C(C)=C\C=C\[C@H](C)[C@H](O)[C@@H](C)[C@@H](O)[C@@H](C)[C@H](OC(=O)N2CCC(NC(C)C)CC2)[C@@H]1C)C4=O [Compound 63]	≤ 0.016 µg/mL	0.25 µg/mL	0.06 µg/mL (≈ 0.0617 µM)		0.5 µg/mL	0.125 µg/mL	2 µg/mL (≈ 2.06 µM)		
CO[C@H]1/C=C/O[C@@]2(C)Oc3c(C)c(O)c4c(c3C2=O)C2=NC3(CCN(CC(C)C)CC3)NC2=C(NC(=O)/C(C)=C\C=C\[C@H](C)[C@H](O)[C@@H](C)[C@@H](O)[C@@H](C)[C@H](OC(=O)N2C[C@H]3CN(CC5CCCCC5)C[C@H]3C2)[C@@H]1C)C4=O [Compound 67]	0.06 µg/mL	0.004 µg/mL	1 µg/mL (≈ 0.962 µM)		0.016 µg/mL	0.003 µg/mL	0.125 µg/mL (≈ 0.12 µM)		
CO[C@H]1/C=C/O[C@@]2(C)Oc3c(C)c(O)c4c(c3C2=O)C2=NC3(CCN(CC(C)C)CC3)NC2=C(NC(=O)/C(C)=C\C=C\[C@H](C)[C@H](O)[C@@H](C)[C@@H](O)[C@@H](C)[C@H](OC(=O)N2CCC3(CCN(CC5CCCCC5)CC3)CC2)[C@@H]1C)C4=O [Compound 72]	0.06 µg/mL	0.008 µg/mL	0.25 µg/mL (≈ 0.231 µM)		0.03 µg/mL	0.0004 µg/mL	0.25 µg/mL (≈ 0.231 µM)		
CO[C@H]1/C=C/O[C@@]2(C)Oc3c(C)c(O)c4c(c3C2=O)C2=NC3(CCN(CC(C)C)CC3)NC2=C(NC(=O)/C(C)=C\C=C\[C@H](C)[C@H](O)[C@@H](C)[C@@H](O)[C@@H](C)[C@H](OC(=O)NC2CCN(C3CCCCC3)CC2)[C@@H]1C)C4=O [Compound 77]	≤ 0.016 µg/mL	0.06 µg/mL	0.06 µg/mL (≈ 0.0592 µM)		0.25 µg/mL	0.03 µg/mL	1 µg/mL (≈ 0.987 µM)		
CO[C@H]1/C=C/O[C@@]2(C)Oc3c(C)c(O)c4c(c3C2=O)C2=NC3(CCN(CC(C)C)CC3)NC2=C(NC(=O)/C(C)=C\C=C\[C@H](C)[C@H](O)[C@@H](C)[C@@H](O)[C@@H](C)[C@H](OC(C)=O)[C@@H]1C)C4=O [Rifabutin, rifabutin]	≤ 0.002 µg/mL		0.016 µg/mL (≈ 0.0189 µM)	8 µg/mL			16 µg/mL (≈ 18.9 µM)	8 µg/mL	16 µg/mL (≈ 18.9 µM)
